Experimental data reported in ChEMBL document CHEMBL2390945, “Synthesis and characterization of 123I-CMICE-013: a potential SPECT myocardial perfusion imaging agent” (Bioorg Med Chem, 2013).

Columns and labels:
Blood [1] = experiment: Biodistribution in Sprague-Dawley rat blood at 24 hrs by gamma counting analysis; type: ADME, organism-based; conditions: in vivo
Heart [2] = experiment: Biodistribution in Sprague-Dawley rat heart at 24 hrs by gamma counting analysis; type: ADME, organism-based; conditions: in vivo
Muscle tissue = experiment: Biodistribution in Sprague-Dawley rat muscle at 24 hrs by gamma counting analysis; type: ADME, organism-based; conditions: in vivo
Brain [3] = experiment: Biodistribution in Sprague-Dawley rat brain at 24 hrs by gamma counting analysis; type: ADME, organism-based; conditions: in vivo
Liver [4] = experiment: Biodistribution in Sprague-Dawley rat liver at 24 hrs by gamma counting analysis; type: ADME, organism-based; conditions: in vivo
Kidney = experiment: Biodistribution in Sprague-Dawley rat kidney at 24 hrs by gamma counting analysis; type: ADME, organism-based; conditions: in vivo
Lung [5] = experiment: Biodistribution in Sprague-Dawley rat lung at 24 hrs by gamma counting analysis; type: ADME, organism-based; conditions: in vivo
Spleen = experiment: Biodistribution in Sprague-Dawley rat spleen at 24 hrs by gamma counting analysis; type: ADME, organism-based; conditions: in vivo
Thyroid gland [6] = experiment: Biodistribution in Sprague-Dawley rat thyroid assessed per organ at 24 hrs by gamma counting analysis; type: ADME, organism-based; conditions: in vivo
Thyroid gland [7] = experiment: Biodistribution in Sprague-Dawley rat thyroid assessed per organ at 2 hrs by gamma counting analysis; type: ADME, organism-based; conditions: in vivo
Brain [8] = experiment: Biodistribution in Sprague-Dawley rat brain at 2 hrs by gamma counting analysis; type: ADME, organism-based; conditions: in vivo
Lung [9] = experiment: Biodistribution in Sprague-Dawley rat lung at 2 hrs by gamma counting analysis; type: ADME, organism-based; conditions: in vivo
[10] = Ratio of drug level in heart to blood in Sprague-Dawley rat measured at 2 hrs; type: ADME
Blood [11] = experiment: Biodistribution in Sprague-Dawley rat blood at 2 hrs by gamma counting analysis; type: ADME, organism-based; conditions: in vivo
Liver [12] = experiment: Biodistribution in Sprague-Dawley rat liver at 2 hrs by gamma counting analysis; type: ADME, organism-based; conditions: in vivo
Heart [13] = experiment: Biodistribution in Sprague-Dawley rat heart at 2 hrs by gamma counting analysis; type: ADME, organism-based; conditions: in vivo
[14] = Ratio of drug level in heart to lung in Sprague-Dawley rat measured at 2 hrs; conditions: in vivo
[15] = Ratio of drug level in heart to liver in Sprague-Dawley rat measured at 2 hrs; conditions: in vivo
Liver [16] = experiment: Biodistribution in rat liver at 15 uci, iv measured at 60 mins; type: ADME, organism-based; conditions: in vivo, 1 h
Liver [17] = experiment: Biodistribution in rat liver at 15 uci, iv measured at 15 mins; type: ADME, organism-based; conditions: in vivo, 0.25 h

SMILES	Drug uptake (Blood [1]) [% ID/g]	Drug uptake (Heart [2])	Drug uptake (Muscle tissue)	Drug uptake (Brain [3])	Drug uptake (Liver [4])	Drug uptake (Kidney)	Drug uptake (Lung [5])	Drug uptake (Spleen)	Drug uptake (Thyroid gland [6]) [%ID]	Drug uptake (Thyroid gland [7]) [%ID]	Drug uptake (Brain [8]) [%Idose/kg]	Drug uptake (Lung [9]) [%Idose/kg]	Kp at 2 h [10]	Drug uptake (Blood [11]) [%Idose/kg]	Drug uptake (Liver [12]) [%Idose/kg]	Drug uptake (Heart [13]) [%Idose/kg]	Ratio [14]	Ratio [15]	Drug uptake (Liver [16]) [% ID/g]	Drug uptake (Liver [17]) [% ID/g]
COc1cc2c(cc1OC)[C@@H]1C(=O)c3ccc4c(c3O[C@@H]1CO2)C[C@H](/C(C)=C\[125I])O4	0.06	Active	Active	Active	Active	Active	Active	Active	3.78	0.34	0.34	0.33	22.4	0.14	1.17	2.96	9.32	2.57		
CC(C)(C)n1ncc(OCc2ccc(COCCF)cc2)c(Cl)c1=O [FLURPIRIDAZ]																			0.9	1.4
